Assay results from US8222244B2, “Staurosporine derivatives as inhibitors of FLT3 receptor tyrosine kinase activity” (Novartis AG, priority 2001, dated 2012).

Biological target: T1, human Flt-3 (Homo sapiens, UniProt P36888)
T1 construct: expresses the amino acid region amino acids 563-993 of the intra-cytoplasmic kinase domains of human Flt-3; made in house; host or cells: Sf9 insect cells (baculovirus, pFbacG01 donor vector)
T1 sequence (P36888 563-993): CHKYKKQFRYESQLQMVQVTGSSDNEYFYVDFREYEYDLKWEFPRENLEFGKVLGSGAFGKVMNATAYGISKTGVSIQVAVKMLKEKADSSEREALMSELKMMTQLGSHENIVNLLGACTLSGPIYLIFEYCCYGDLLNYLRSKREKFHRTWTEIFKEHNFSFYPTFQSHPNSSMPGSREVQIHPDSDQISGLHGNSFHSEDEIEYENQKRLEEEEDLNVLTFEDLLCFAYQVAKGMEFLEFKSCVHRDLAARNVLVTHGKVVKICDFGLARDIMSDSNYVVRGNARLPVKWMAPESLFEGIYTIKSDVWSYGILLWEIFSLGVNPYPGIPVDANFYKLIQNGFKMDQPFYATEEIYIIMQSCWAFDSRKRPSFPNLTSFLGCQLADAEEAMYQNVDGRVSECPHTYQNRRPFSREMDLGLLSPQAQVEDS
Test: Tyrosine protein kinase assay with purified GST-Flt-3 (33P incorporation)
Type: biochemical
Conditions: at a 1.0 micromolar concentration
Protocol: ATP into appropriate substrates.
The coding sequences for the cytoplasmic domain of Flt-3 was amplified by PCR from human c-DNA libraries (Clontech). The amplified DNA fragments and the pFbacG01 vector were made compatible for ligation by digestion with BamH1 and Hind III. […] The production of the viruses, the expression of proteins in Sf9 cells and the purification of the GST-fused proteins were performed as following:
(Generation of Bac- to Bac GST-fusion vectors); pFbacG01, pFbacGST2T and pFbacGSTx3 Bac-to-Bac™ donor vectors were generated from pAcG1, pAcG2T and pAcG3X respectively, which facilitate the expression of GST-fusion proteins with the possibility of cleavage with thrombin (pFbacGT2) or factor Xa (pFbacGSTx3) while pFbacG01 expresses no proteolytic cleavage site. These were generated in house by isolation of the DNA fragment containing the gene for GST with the C-terminal protease and restriction sites by restriction enzyme digestion of the relevant PharMingen baculovirus donor vector with EcoRV and EcoRI. This EcoRV/EcoRI fragment was ligated into the pFastBac1 vector which had been restriction digested with BamHI, blunt-ended by Klenow reaction and subsequently digested with EcoRI to generate a blunt-ended/EcoRI vector. (Production of virus); Transfer vectors containing the kinase domains were transfected into the DH10Bac cell line (GIBCO) and plated on selective agar plates. Colonies without insertion of the fusion sequence into the viral genome (carried by the bacteria) are blue. Single white colonies were picked and viral DNA (bacmid) isolated from the bacteria by standard plasmid purification procedures. Sf9 cells or Sf21 cells were then transfected in 25 cm^2 flasks with the viral DNA using Cellfectin reagent. (Determination of small scale protein expression in Sf9 cells); Virus containing media was collected from the transfected cell culture and used for infection to increase its titer. Virus containing media obtained after two rounds of infection was used for large-scale protein expression. For large-scale protein expression 100 cm^2 round tissue culture plates were seeded with 5×10^7 cells/plate and infected with 1 mL of virus-containing media (approx. 5 MOIs). After 3 days the cells were scraped off the plate and centrifuged at 500 rpm for 5 min. Cell pellets from 10-20, 100 cm^2 plates, were resuspended in 50 mL of ice-cold lysis buffer (25 mMTris-HCl, pH7.5, 2 mMEDTA, 1% NP-40, 1 mM DTT, 1 mMP MSF). The cells were stirred on ice for 15 min and then centrifuged at 5000 rpms for 20 min.
ATP 0.1 μCi). […] ATP into appropriate substrates. […] Subsequently, 40 μL of the reaction mixture were transferred onto Immobilon-PVDF membrane (Millipore, Bedford, Mass., USA) previously soaked for 5 min with methanol, rinsed with water, then soaked for 5 min with 0.5% H3PO4 and mounted on vacuum manifold with disconnected vacuum source. After spotting all samples, vacuum was connected and each well rinsed with 200 μL 0.5% H3PO4. Membranes were removed and washed 4× on a shaker with 1.0% H3PO4, once with ethanol. Membranes were counted after drying at ambient temperature, mounting in Packard TopCount 96-well frame, and addition of 10 μL/well of Microscint™ (Packard). […] One unit of protein kinase activity is defined as 1 nmole of ^33P ATP transferred from [γ^33P] ATP to the substrate protein per minute per mg of protein at 37° C.

Compound | Flt3 Inhibition (percent inhibition of Flt3 kinase activity) [%]
(9a,10b,11b,13a)-11-[[N-Acetyl-4-O-acetyl-6-O-(1-oxooctadecyl)-1-O-(phenylmethyl)-a-muramoyl]methylamino]-2,3,10,11,12,13-hexahydro-10-methoxy-9-methyl-9,13-epoxy-1H,9H-diindolo[1,2,3-gh:3′,2′,1′-lm]pyrrolo[3,4-j][1,7]benzodiazonin-1-one [149622-62-8] | 22
(9a,10b,11b,13a)-11-[[N-Acetyl-6-O-(methylsulfonyl)-1-O-(phenylmethyl)-a-muramoyl]methylamino]-2,3,10,11,12,13-hexahydro-10-methoxy-9-methyl-, 9,13-epoxy-1H,9H-diindolo[1,2,3-gh:3′,2′,1′-lm]pyrrolo[3,4-j][1,7]benzodiazonin-1-one [149622-41-3] | 51
COC1C(N(C)C(=O)c2cccnc2)CC2OC1(C)n1c3ccccc3c3c4c(c5c6ccccc6n2c5c31)C(=O)NC4 (stereo not drawn) [155848-16-1, [9S-(9a,10b,11b,13a)]-N-(2,3,10,11,12,13-Hexahydro-10-methoxy-9-methyl-1-oxo-9,13-epoxy-1H,9H-diindolo[1,2,3-gh:3′,2′,1′-lm]pyrrolo[3,4-g][1,7]benzodiazonin-11-yl)-N-methyl-3-pyridinecarboxamide] | 89
COC(=O)CN(C)C1CC2OC(C)(C1OC)n1c3ccccc3c3c4c(c5c6ccccc6n2c5c31)C(=O)NC4 (stereo not drawn) [120685-21-4, [9S-(9a,10b,11b,13a)]-N-(2,3,10,11,12,13-Hexahydro-10-methoxy-9-methyl-1-oxo-9,13-epoxy-1H,9H-diindolo[1,2,3-gh:3′,2′,1′-lm]pyrrolo[3,4-j][1,7]benzodiazonin-11-yl)-N-methyl-glycine, methyl ester] | 82
COC1C(=O)CC2OC1(C)n1c3ccccc3c3c4c(c5c6ccccc6n2c5c31)C(=O)NC4 [178276-05-6, (9S,10S,13R)-2,3,9,10,12,13-Hexahydro-10-methoxy-9-methyl-9,13-epoxy-1H,11H-diindolo[1,2,3-gh:3′,2′,1′-lm]pyrrolo[3,4-j][1,7]benzodiazonine-1,11-dione] | 88
COC1C(N(C)C(=O)c2cnccn2)CC2OC1(C)n1c3ccccc3c3c4c(c5c6ccccc6n2c5c31)C(=O)NC4 (stereo not drawn) [155848-17-2, [9S-(9a,10b,11b,13a)]-N-(2,3,10,11,12,13-Hexahydro-10-methoxy-9-methyl-1-oxo-9,13-epoxy-1H,9H-diindolo[1,2,3-gh:3′,2′,1′-lm]pyrrolo[3,4-g][1,7]benzodiazonin-11-yl)-N-methyl-pyrazinecarboxamide] | 85
(9a,10b,11b,13a)-11-[(N-Acetyl-6-amino-1,6-dideoxymuramoyl)methylamino]-2,3,10,11,12,13-hexahydro-10-methoxy-9-methyl-9,13-epoxy-1H,9H-diindolo[1,2,3-gh:3′,2′,1′-lm]pyrrolo[3,4-j][1,7]benzodiazonin-1-one, monomethanesulfonate [150654-80-1] | 97
CO[C@@H]1[C@H](N(C)C(=O)c2ccccc2)C[C@H]2O[C@]1(C)n1c3ccccc3c3c4c(c5c6ccccc6n2c5c31)C(=O)NC4O (stereo partly shown) [179237-49-1, N-(2,3,10,11,12,13-Hexahydro-3-hydroxy-10-methoxy-9-methyl-1-oxo-9,13-epoxy-1H,9H-diindolo[1,2,3-gh:3′,2′,1′-lm]pyrrolo[3,4-j][1,7]benzodiazonin-11-yl)-N-methyl-benzamide] | 41
CO[C@@H]1[C@H](N(C)C(=O)c2ccccc2)C[C@H]2O[C@]1(C)n1c3ccccc3c3c4c(c5c6ccccc6n2c5c31)C(=O)NC4=O [154589-96-5, [9S-(9a,10b,11b,13a)]-N-(2,3,10,11,12,13-Hexahydro-10-methoxy-9-methyl-1,3-dioxo-9,13-epoxy-1H,9H-diindolo[1,2,3-gh:3′,2′,1′-lm]pyrrolo[3,4-j][1,7]benzodiazonin-11-yl)-N-methyl-benzamide] | 63
C=CCNC(=S)N(C)C1CC2OC(C)(C1OC)n1c3ccccc3c3c4c(c5c6ccccc6n2c5c31)C(=O)NC4 (stereo not shown) [120685-39-4, (9a,10b,11b,13a)-N-(2,3,10,11,12,13-Hexahydro-10-methoxy-9-methyl-1-oxo-9,13-epoxy-1H,9H-diindolo[1,2,3-gh:3′,2′,1′-lm]pyrrolo[3,4-j][1,7]benzodiazonin-11-yl)-N-methyl-N′-2-propenyl-thiourea] | 93
(9a,10b,11b,13a)-11-[(N-Acetyl-6-amino-6-deoxy-a-isomuramoyl)methylamino]-2,3,10,11,12,13-hexahydro-10-methoxy-9-methyl-9,13-epoxy-1H,9H-diindolo[1,2,3-gh:3′,2′,1′-lm]pyrrolo[3,4-j][1,7]benzodiazonin-1-one [149622-56-0] | 100
[9S-(9a,10b,11b,13a)]-(2,3,10,11,12,13-Hexahydro-10-methoxy-9-methyl-1-oxo-9,13-epoxy-1H,9H-diindolo[1,2,3-gh:3′,2′,1′-lm]pyrrolo[3,4-j][1,7]benzodiazonin-11-yl)methyl-carbamic acid, 2-methylpropyl ester [154590-03-1] | 49
COC1C(N(C)C(=O)CN)CC2OC1(C)n1c3ccccc3c3c4c(c5c6ccccc6n2c5c31)C(=O)NC4.Cl (stereo not drawn) [124151-42-4, [9S-(9a,10b,11b,13a)]-2-Amino-N-(2,3,10,11,12,13-hexahydro-10-methoxy-9-methyl-1-oxo-9,13-epoxy-1H,9H-diindolo[1,2,3-gh:3′,2′,1′-lm]pyrrolo[3,4-j][1,7]benzodiazonin-11-yl)-N-methyl-acetamide, monohydrochloride] | 97
[9S-(9a,10b,11b,13a)]-(2,3,10,11,12,13-Hexahydro-10-methoxy-9-methyl-1,3-dioxo-9,13-epoxy-1H,9H-diindolo[1,2,3-gh:3′,2′,1′-lm]pyrrolo[3,4-j][1,7]benzodiazonin-11-yl)methyl-carbamic acid, 1,1-dimethylethyl ester [154589-93-2] | 67
CO[C@@H]1[C@H](N(C)C(=O)CCC(=O)[O-])C[C@H]2O[C@]1(C)n1c3ccccc3c3c4c(c5c6ccccc6n2c5c31)C(=O)NC4.[Na+] [120685-10-1, [9S-(9a,10b,11b,13a)]-4-[(2,3,10,11,12,13-Hexahydro-10-methoxy-9-methyl-1-oxo-9,13-epoxy-1H,9H-diindolo[1,2,3-gh:3′,2′,1′-lm]pyrrolo[3,4-j][1,7]benzodiazonin-11-yl)methylamino]-4-oxo-butanoic acid, sodium salt] | 98
COC1C(N(C)C(=O)c2cccc(F)c2)CC2OC1(C)n1c3ccccc3c3c4c(c5c6ccccc6n2c5c31)C(=O)NC4 (stereo not shown) [120685-16-7, (9a,10b,11b,13a)-3-Fluoro-N-(2,3,10,11,12,13-hexahydro-10-methoxy-9-methyl-1-oxo-9,13-epoxy-1H,9H-diindolo[1,2,3-gh:3′,2′,1′-lm]pyrrolo[3,4-j][1,7]benzodiazonin-11-yl)-N-methyl-benzamide] | 60
